Assay results from patent US20080009418A1, “Selective Inhibitors” (Alchemia LTD., priority 2004, published 2008).

Assays:
Human Melanocortin (MC4) = biological target: T1, Human Melanocortin (MC4) (Homo sapiens, UniProt P32245); assay: Radioligand binding, human melanocortin MC4 membranes, FlashPlate, [125I]-NDP-αMSH; conditions: compound at 10 μM, [125I]-NDP-αMSH; for A4: inhibition of radioligand binding: human MC4 membranes
T1 construct: purchased Perkin Elmer Biosignal
In short: (§1)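 Cloned human receptor membranes were coated onto FlashPlate wells and incubated with radioligand and compound (added from a 0.5 mM DMSO daughter plate) for 1 hour at room temperature in the dark. Scintillation counting gave percent inhibition, with DMSO defining total and reference ligand defining non-specific binding.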

[1] = biological target: T2, Human melanin-concentrating hormone (MCH1) (Homo sapiens, UniProt Q99705); assay: Radioligand binding, human melanin-concentrating hormone MCH1 membranes, FlashPlate, [125I]-S36057; conditions: compound at 10 μM; for A6: inhibition of radioligand binding: [125I]-S36057, human MCH1 membranes; for A6: inhibition of radioligand binding, human melanin-concentrating hormone (MCH1): [125I]-S36057
T2 construct: purchased Perkin Elmer Biosignal
In short: as §1

Human neurokinin (NK1) = biological target: T3, Human neurokinin (NK1) (Homo sapiens, UniProt P25103); assay: Radioligand binding, human neurokinin NK1 membranes, filtration, [125I]-Substance P; conditions: compound at 10 μM, [125I]-Substance P; for A8: inhibition of radioligand binding: human NK1 membranes
T3 construct: purchased Perkin Elmer Biosignal
In short: (§2)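 Filtration binding on cloned human receptor membranes (1 Unit/well), [125I]-Substance P for NK1 and [3H]-Diprenorphine for KOP, 1 h at room temperature. Filters PEI-presoaked, washed with cold 50 mM Tris-HCl pH 7.4, counted by scintillation; percent inhibition calculated, reference ligand defining non-specific binding.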

Human μ-opioid (MOP) = biological target: T4, Human μ-opioid (MOP) (Homo sapiens, UniProt P35372); assay: Radioligand binding, human μ-opioid (MOP) membranes, FlashPlate, [3H]-Naloxone; conditions: compound at 10 μM, [3H]-Naloxone; for A7: inhibition of radioligand binding: human MOP membranes
T4 construct: purchased Perkin Elmer Biosignal
In short: as §1

Mouse urotensin (mUR2) = biological target: T5, Mouse urotensin (mUR2) (Mus musculus, UniProt Q8VIH9); assay: Radioligand binding, mouse urotensin mUR2 membranes, FlashPlate, [125I]-Urotensin II; conditions: compound at 10 μM, [125I]-Urotensin II; for A11: inhibition of radioligand binding: mouse mUR2 membranes
T5 construct: purchased Perkin Elmer Biosignal
T5 sequence (Q8VIH9 1-385): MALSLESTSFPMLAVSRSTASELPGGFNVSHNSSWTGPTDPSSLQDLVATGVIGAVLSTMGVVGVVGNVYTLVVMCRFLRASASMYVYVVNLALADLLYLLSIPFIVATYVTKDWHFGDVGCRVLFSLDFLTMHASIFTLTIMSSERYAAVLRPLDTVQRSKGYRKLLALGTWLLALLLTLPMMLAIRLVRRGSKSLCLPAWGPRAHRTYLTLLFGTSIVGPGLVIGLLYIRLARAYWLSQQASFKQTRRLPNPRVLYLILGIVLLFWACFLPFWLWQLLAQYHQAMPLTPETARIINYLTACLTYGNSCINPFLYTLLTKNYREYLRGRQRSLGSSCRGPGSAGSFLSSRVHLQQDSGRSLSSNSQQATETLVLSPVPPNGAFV
In short: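 Cloned mouse urotensin (mUR2) receptor membranes from Perkin Elmer Biosignal were immobilized in FlashPlate microplates using a proprietary coating. Each well got 19.5 μl buffer, then 0.5 μl of DMSO, reference ligand, or compound. Adding 5 μl of [125I]-Urotensin II, diluted to 5× final concentration in binding buffer, started binding. Plates were sealed with TopSeal-A and incubated 1 hour at room temperature in the dark. Wells were counted for 30 seconds each on a TopCount after a 60-second delay, and percentage inhibition was calculated.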

Human δ-opioid (DOP) = biological target: T6, Human δ-opioid (DOP) (Homo sapiens, UniProt P41143); assay: Radioligand binding, human δ-opioid (DOP) membranes, FlashPlate, [3H]-Bremazocine; conditions: compound at 10 μM, [3H]-Bremazocine; for A1: inhibition of radioligand binding: human DOP membranes
T6 construct: purchased Perkin Elmer Biosignal
In short: as §1

Human melanocortin (MC5) = biological target: T7, Human melanocortin (MC5) (Homo sapiens, UniProt P33032); assay: Radioligand binding, human melanocortin MC5 membranes, FlashPlate, [125I]-NDP-αMSH; conditions: compound at 10 μM, [125I]-NDP-αMSH; for A5: inhibition of radioligand binding: human MC5 membranes
T7 construct: purchased Perkin Elmer Biosignal
In short: as §1

[2] = biological target: T8, Human neuropeptide Y (NPY-Y1) (Homo sapiens, UniProt P25929); assay: Radioligand binding, human neuropeptide Y NPY-Y1 membranes, FlashPlate, [125I]-PYY; conditions: compound at 10 μM, [125I]-PYY; for A9: inhibition of radioligand binding: human NPY-Y1 membranes
T8 construct: purchased Perkin Elmer Biosignal
T8 sequence (P25929 1-384): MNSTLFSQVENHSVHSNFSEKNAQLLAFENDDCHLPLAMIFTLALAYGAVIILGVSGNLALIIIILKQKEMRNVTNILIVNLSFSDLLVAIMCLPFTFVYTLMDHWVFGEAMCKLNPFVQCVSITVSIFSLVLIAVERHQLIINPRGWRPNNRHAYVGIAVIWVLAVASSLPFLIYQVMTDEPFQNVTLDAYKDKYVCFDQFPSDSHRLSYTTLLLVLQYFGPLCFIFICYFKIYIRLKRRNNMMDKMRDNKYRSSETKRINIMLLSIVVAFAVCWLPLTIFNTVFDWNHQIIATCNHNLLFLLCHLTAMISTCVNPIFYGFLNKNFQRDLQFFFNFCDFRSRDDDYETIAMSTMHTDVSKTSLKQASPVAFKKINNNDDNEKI
In short: as §1

Human κ-Opioid (KOP) = biological target: T9, Human κ-Opioid (KOP) (Homo sapiens, UniProt P41145); assay: Radioligand binding, human κ-opioid (KOP) membranes, filtration, [3H]-Diprenorphine; conditions: compound at 10 μM, [3H]-Diprenorphine; for A2: inhibition of radioligand binding: human KOP membranes
T9 construct: purchased Perkin Elmer Biosignal
In short: as §2

Human Melanocortin (MC3) = biological target: T10, Human Melanocortin (MC3) (Homo sapiens, UniProt P41968); assay: Radioligand binding, human melanocortin MC3 membranes, FlashPlate, [125I]-NDP-αMSH; conditions: compound at 10 μM, [125I]-NDP-αMSH; for A3: inhibition of radioligand binding: human MC3 membranes
T10 construct: purchased Perkin Elmer Biosignal
In short: as §1

Human opioid (ORL1) = biological target: T11, Human opioid (ORL1) (Homo sapiens, UniProt P41146); assay: Radioligand binding, human opioid ORL1 membranes, FlashPlate, [125I]-Nociceptin; conditions: compound at 10 μM, [125I]-Nociceptin; for A10: inhibition of radioligand binding: human ORL1 membranes
T11 construct: purchased Perkin Elmer Biosignal
In short: as §1

T3 sequence (P25103 whole entry): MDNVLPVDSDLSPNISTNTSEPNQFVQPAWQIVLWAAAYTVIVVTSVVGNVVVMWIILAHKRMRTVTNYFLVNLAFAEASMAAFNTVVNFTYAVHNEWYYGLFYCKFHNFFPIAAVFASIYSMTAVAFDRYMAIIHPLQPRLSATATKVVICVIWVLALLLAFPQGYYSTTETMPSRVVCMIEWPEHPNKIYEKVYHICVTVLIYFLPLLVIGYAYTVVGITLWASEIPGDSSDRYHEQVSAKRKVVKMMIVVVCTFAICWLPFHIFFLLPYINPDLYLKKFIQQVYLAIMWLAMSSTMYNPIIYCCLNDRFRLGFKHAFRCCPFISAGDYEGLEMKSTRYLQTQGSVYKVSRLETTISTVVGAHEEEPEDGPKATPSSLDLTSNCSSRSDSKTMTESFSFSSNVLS
T2 sequence (Q99705 whole entry): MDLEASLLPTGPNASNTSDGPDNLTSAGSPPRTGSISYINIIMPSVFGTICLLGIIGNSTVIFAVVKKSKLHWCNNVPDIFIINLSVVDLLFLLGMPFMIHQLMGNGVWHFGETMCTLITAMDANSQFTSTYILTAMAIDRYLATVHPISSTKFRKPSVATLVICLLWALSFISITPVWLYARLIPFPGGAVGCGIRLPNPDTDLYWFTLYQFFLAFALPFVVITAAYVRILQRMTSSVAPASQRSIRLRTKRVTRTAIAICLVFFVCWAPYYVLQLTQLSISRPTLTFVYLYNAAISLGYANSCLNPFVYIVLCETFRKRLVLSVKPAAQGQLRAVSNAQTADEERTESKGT
T7 sequence (P33032 whole entry): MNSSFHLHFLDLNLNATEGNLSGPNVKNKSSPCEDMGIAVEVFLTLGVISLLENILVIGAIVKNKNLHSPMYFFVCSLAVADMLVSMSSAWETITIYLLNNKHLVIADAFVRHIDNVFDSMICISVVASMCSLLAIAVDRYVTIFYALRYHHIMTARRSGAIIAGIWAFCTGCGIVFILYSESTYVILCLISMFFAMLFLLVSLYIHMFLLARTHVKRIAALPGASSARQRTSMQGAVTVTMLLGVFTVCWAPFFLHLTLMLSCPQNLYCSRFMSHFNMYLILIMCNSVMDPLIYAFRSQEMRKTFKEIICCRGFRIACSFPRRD
T10 sequence (P41968 whole entry): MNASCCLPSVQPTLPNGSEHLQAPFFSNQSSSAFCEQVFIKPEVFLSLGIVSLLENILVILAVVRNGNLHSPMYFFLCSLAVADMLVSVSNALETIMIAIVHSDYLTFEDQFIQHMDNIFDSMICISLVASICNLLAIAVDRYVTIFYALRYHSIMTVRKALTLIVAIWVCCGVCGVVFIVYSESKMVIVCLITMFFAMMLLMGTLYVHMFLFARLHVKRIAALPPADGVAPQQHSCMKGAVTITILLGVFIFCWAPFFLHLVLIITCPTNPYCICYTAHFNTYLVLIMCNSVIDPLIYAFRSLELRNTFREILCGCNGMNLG
T9 sequence (P41145 whole entry): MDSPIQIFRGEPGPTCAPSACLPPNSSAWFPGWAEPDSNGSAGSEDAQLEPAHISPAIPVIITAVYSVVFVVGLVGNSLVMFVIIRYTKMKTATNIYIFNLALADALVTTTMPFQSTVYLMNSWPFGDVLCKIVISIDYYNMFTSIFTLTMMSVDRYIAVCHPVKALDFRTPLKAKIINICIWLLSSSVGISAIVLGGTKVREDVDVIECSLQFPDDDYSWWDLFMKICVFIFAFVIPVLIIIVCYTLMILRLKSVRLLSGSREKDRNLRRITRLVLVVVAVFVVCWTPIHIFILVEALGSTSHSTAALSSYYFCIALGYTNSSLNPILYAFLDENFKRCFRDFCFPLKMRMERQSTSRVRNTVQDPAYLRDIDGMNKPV
T6 sequence (P41143 whole entry): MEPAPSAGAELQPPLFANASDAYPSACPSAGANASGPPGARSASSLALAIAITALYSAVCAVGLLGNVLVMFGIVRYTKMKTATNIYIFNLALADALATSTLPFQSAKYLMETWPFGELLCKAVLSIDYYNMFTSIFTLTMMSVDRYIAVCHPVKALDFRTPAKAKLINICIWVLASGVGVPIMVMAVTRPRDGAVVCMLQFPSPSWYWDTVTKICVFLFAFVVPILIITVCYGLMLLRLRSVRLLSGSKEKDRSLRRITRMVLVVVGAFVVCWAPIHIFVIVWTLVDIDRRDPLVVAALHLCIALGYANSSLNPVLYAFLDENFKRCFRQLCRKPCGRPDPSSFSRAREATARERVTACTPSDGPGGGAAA
T11 sequence (P41146 whole entry): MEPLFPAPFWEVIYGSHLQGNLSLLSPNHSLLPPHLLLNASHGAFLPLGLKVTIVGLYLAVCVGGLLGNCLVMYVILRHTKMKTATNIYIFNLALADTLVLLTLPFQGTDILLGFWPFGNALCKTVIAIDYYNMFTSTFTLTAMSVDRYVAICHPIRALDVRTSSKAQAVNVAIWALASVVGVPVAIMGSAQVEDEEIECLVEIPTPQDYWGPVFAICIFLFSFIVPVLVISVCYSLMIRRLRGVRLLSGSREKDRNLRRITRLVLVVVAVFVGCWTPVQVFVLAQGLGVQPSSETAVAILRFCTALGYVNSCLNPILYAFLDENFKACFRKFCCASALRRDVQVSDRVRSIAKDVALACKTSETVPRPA
T1 sequence (P32245 whole entry): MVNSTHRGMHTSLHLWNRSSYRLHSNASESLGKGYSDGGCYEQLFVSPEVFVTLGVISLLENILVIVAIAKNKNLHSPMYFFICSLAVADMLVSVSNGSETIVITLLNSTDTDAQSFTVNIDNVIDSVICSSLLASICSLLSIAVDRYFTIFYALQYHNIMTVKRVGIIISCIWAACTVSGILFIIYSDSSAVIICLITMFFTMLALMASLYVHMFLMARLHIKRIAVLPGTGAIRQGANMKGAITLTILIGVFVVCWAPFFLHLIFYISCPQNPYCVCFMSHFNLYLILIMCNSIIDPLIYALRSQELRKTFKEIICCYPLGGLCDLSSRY
T4 sequence (P35372 whole entry): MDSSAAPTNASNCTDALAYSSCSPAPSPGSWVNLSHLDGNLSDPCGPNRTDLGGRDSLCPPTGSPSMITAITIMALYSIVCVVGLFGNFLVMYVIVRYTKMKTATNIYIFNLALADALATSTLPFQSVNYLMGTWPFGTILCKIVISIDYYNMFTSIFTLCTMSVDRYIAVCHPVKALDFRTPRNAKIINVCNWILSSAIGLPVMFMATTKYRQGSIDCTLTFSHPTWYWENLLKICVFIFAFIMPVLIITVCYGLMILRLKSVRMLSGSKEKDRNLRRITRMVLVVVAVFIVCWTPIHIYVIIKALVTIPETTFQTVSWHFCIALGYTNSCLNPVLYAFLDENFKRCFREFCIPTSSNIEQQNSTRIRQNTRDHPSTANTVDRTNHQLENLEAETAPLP

| Structure (SMILES) | A8: inhibition of radioligand binding (Human neurokinin (NK1)) | A11: inhibition of radioligand binding (Mouse urotensin (mUR2)) | A1: inhibition of radioligand binding (Human δ-opioid (DOP)) | A9: inhibition of radioligand binding [2] | A2: inhibition of radioligand binding (Human κ-Opioid (KOP)) | A3: inhibition of radioligand binding (Human Melanocortin (MC3)) | A6: inhibition of radioligand binding, human melanin-concentrating hormone (MCH1) [1] | A8: inhibition of radioligand binding, human neurokinin (NK1) (Human neurokinin (NK1)) | A7: inhibition of radioligand binding, human μ-opioid (MOP) (Human μ-opioid (MOP)) | A11: inhibition of radioligand binding, mouse urotensin (mUR2) (Mouse urotensin (mUR2)) | A1: inhibition of radioligand binding, human δ-opioid (DOP) (Human δ-opioid (DOP)) | A5: inhibition of radioligand binding, human melanocortin (MC5) (Human melanocortin (MC5)) | A9: inhibition of radioligand binding, human neuropeptide Y (NPY-Y1) [2] | A2: inhibition of radioligand binding, human κ-opioid (KOP) (Human κ-Opioid (KOP)) | A3: inhibition of radioligand binding, human melanocortin (MC3) (Human Melanocortin (MC3)) | A10: inhibition of radioligand binding, human opioid (ORL1) (Human opioid (ORL1)) | A4: inhibition of radioligand binding, human melanocortin (MC4) (Human Melanocortin (MC4); 10 µM) | further results |
| --- | --- | --- | --- | --- | --- | --- | --- | --- | --- | --- | --- | --- | --- | --- | --- | --- | --- | --- |
| N=C(N)NCC(=O)NC1C(OCc2ccc(Cl)cc2)OC(COCc2ccc(Cl)cc2)C(O)C1OCc1ccc(-c2ccccc2)cc1 (stereo not shown) [compound 425] | + (“+” indicates greater than 50% inhibition at 10 μM) | − (“−” indicates less than 50% inhibition at 10 μM) | − (“−” indicates less than 50% inhibition at 10 μM) | − (“−” indicates less than 50% inhibition at 10 μM) | − (“−” indicates less than 50% inhibition at 10 μM) | + (“+” indicates greater than 50% inhibition at 10 μM) |  |  |  |  |  |  |  |  |  |  |  | A4: inhibition of radioligand binding (Human Melanocortin (MC4)): + (“+” indicates greater than 50% inhibition at 10 μM); A6: inhibition of radioligand binding [1]: + (“+” indicates greater than 50% inhibition at 10 μM); A7: inhibition of radioligand binding (Human μ-opioid (MOP)): − (“−” indicates less than 50% inhibition at 10 μM); A5: inhibition of radioligand binding (Human melanocortin (MC5)): + (“+” indicates greater than 50% inhibition at 10 μM); A10: inhibition of radioligand binding (Human opioid (ORL1)): + (“+” indicates greater than 50% inhibition at 10 μM) |
| NCCCC(=O)NC1C(OCc2ccccc2)OC(COCc2ccc(Cl)cc2)C(O)C1OCc1ccc(Cl)cc1 (stereo not shown) [compound 374] |  |  |  |  |  |  | − (“−” indicates less than 50% inhibition at 10 μM) | + (“+” indicates greater than 50% inhibition at 10 μM) | − (“−” indicates less than 50% inhibition at 10 μM) | − (“−” indicates less than 50% inhibition at 10 μM) | − (“−” indicates less than 50% inhibition at 10 μM) | + (“+” indicates greater than 50% inhibition at 10 μM) | − (“−” indicates less than 50% inhibition at 10 μM) | − (“−” indicates less than 50% inhibition at 10 μM) | − (“−” indicates less than 50% inhibition at 10 μM) | − (“−” indicates less than 50% inhibition at 10 μM) |  | A4: inhibition of radioligand binding, human melanocortin (MC4) (Human Melanocortin (MC4)): + (“+” indicates greater than 50% inhibition at 10 μM) |
| NCCCC(=O)NC1C(OCc2ccc(Cl)cc2)OC(COCc2ccccc2)C(O)C1OCc1ccc2ccccc2c1 (single isomer, unassigned) [compound 497] |  |  |  |  |  |  | − (“−” indicates less than 50% inhibition at 10 μM) | + (“+” indicates greater than 50% inhibition at 10 μM) | − (“−” indicates less than 50% inhibition at 10 μM) | − (“−” indicates less than 50% inhibition at 10 μM) | − (“−” indicates less than 50% inhibition at 10 μM) | + (“+” indicates greater than 50% inhibition at 10 μM) | − (“−” indicates less than 50% inhibition at 10 μM) | − (“−” indicates less than 50% inhibition at 10 μM) | − (“−” indicates less than 50% inhibition at 10 μM) |  | − (“−” indicates less than 50% inhibition at 10 μM) | A10: inhibition of radioligand binding, human opioid (ORL1) (Human opioid (ORL1); 10 µM): − (“−” indicates less than 50% inhibition at 10 μM) |
| N=C(N)NCCC(=O)N[C@H]1C(OCc2ccc(Cl)cc2)O[C@H](COCc2ccc(Cl)cc2)[C@@H](O)[C@@H]1OCc1ccc(Cl)cc1 (stereo partly shown) [compound 526] |  |  |  |  |  |  | + (“+” indicates greater than 50% inhibition at 10 μM) | + (“+” indicates greater than 50% inhibition at 10 μM) | − (“−” indicates less than 50% inhibition at 10 μM) | − (“−” indicates less than 50% inhibition at 10 μM) | − (“−” indicates less than 50% inhibition at 10 μM) | + (“+” indicates greater than 50% inhibition at 10 μM) | − (“−” indicates less than 50% inhibition at 10 μM) |  |  | − (“−” indicates less than 50% inhibition at 10 μM) | − (“−” indicates less than 50% inhibition at 10 μM) | A2: inhibition of radioligand binding, human κ-opioid (KOP) (Human κ-Opioid (KOP); 10 µM): − (“−” indicates less than 50% inhibition at 10 μM); A3: inhibition of radioligand binding, human melanocortin (MC3) (Human Melanocortin (MC3); 10 µM): − (“−” indicates less than 50% inhibition at 10 μM) |
| NCCCC(=O)NC1C(OCc2ccc3ccccc3c2)OC(COCc2ccccc2)C(O)C1OCc1ccc(Cl)cc1 (single isomer, unassigned) [compound 456] | + (“+” indicates greater than 50% inhibition at 10 μM) | − (“−” indicates less than 50% inhibition at 10 μM) | − (“−” indicates less than 50% inhibition at 10 μM) | − (“−” indicates less than 50% inhibition at 10 μM) | − (“−” indicates less than 50% inhibition at 10 μM) | − (“−” indicates less than 50% inhibition at 10 μM) |  |  |  |  |  |  |  |  |  |  |  | A4: inhibition of radioligand binding (Human Melanocortin (MC4); 10 µM): − (“−” indicates less than 50% inhibition at 10 μM); A6: inhibition of radioligand binding ([1]; 10 µM): + (“+” indicates greater than 50% inhibition at 10 μM); A7: inhibition of radioligand binding (Human μ-opioid (MOP); 10 µM): − (“−” indicates less than 50% inhibition at 10 μM); A5: inhibition of radioligand binding (Human melanocortin (MC5); 10 µM): + (“+” indicates greater than 50% inhibition at 10 μM); A10: inhibition of radioligand binding (Human opioid (ORL1); 10 µM): − (“−” indicates less than 50% inhibition at 10 μM) |
